Test results: US9290457B2, “Substituted dihydropyrimidinones and their use as inhibitors of neutrophil elastase activity” (Boehringer Ingelheim International GmbH, priority 2014, dated 2016)

molecular target: neutrophil elastase (Homo sapiens (Human), UniProt P08246); experiment: Human Neutrophil Elastase Assay; assay type: biochemical; conditions: substrate MeOSuc-Ala-Ala-Pro-Val-AMC
Experimental: Human Neutrophil Elastase Assay
All other materials were of the highest grade commercially available.
The following buffers were used: Compound buffer: 100 mM Tris, 500 mM NaCl, adjusted to pH 7.5; Assay buffer: 100 mM Tris, 500 mM NaCl, adjusted to pH 7.5, containing 0.01% BSA.
Assay conditions: Test compounds were prediluted in DMSO and subsequently in compound buffer (5% DMSO final). […] After inactivation of the enzyme, fluorescence intensities were measured at 380 nm excitation and 460 nm emission wavelengths.
Each plate contains wells with a high value control (DMSO+enzyme+substrate) and wells with a low value control (DMSO+inactivated enzyme+substrate). IC50 values were estimated using a sigmoidal concentration response curve with variable slope. Means of low values were taken as 0%, means of high values as 100%.

neutrophil elastase, sequence (P08246 30-247): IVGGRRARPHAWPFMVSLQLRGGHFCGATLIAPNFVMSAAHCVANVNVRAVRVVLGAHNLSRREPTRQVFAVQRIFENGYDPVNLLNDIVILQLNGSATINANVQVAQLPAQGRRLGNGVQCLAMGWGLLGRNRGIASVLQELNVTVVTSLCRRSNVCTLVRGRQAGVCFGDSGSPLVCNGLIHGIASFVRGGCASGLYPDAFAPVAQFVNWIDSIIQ

IC50 [nM]	Structure (SMILES)
1.9	CC(=O)C1=C(C)N(c2cccc(C(F)(F)F)c2)C(=O)N(C)C1c1ccc(C#N)cc1-c1ccco1 (stereo not drawn) [Example 5.1]
1.4	CC(=O)C1=C(C)N(c2cccc(C(F)(F)F)c2)C(=O)N(C)C1c1ccc(C#N)cc1-c1ccn(C)n1 (stereo not drawn) [Example 5.2]
1.1	CC(=O)C1=C(C)N(c2cccc(C(F)(F)F)c2)C(=O)N(C)C1c1ccc(C#N)cc1-c1cnn(C)c1 (stereo not drawn) [Example 5.3]
< 1	CC(=O)C1=C(C)N(c2cccc(C(F)(F)F)c2)C(=O)N(C)C1c1ccc(C#N)cc1-c1ccn(C)c(=O)c1 (stereo not drawn) [Example 5.4]
5.3	CC(=O)C1=C(C)N(c2cccc(C(F)(F)F)c2)C(=O)N(C)C1c1ccc(C#N)cc1C1=CN(C(=O)OC(C)(C)C)CC1 (stereo not drawn) [Example 5.5]
4.8	CC(=O)C1=C(C)N(c2cccc(C(F)(F)F)c2)C(=O)N(C)C1c1ccc(C#N)cc1C1=CCN(C(=O)OC(C)(C)C)CC1 (stereo not drawn) [Example 5.6, 4-{2-[5-Acetyl-3,6-dimethyl-2-oxo-1-(3-trifluoromethyl-phenyl)-1,2,3,4-tetrahydro-pyrimidin-4-yl]-5-cyano-phenyl}-3,6-dihydro-2H-pyridine-1-carboxylic acid tert-butyl ester]
< 1	CC(=O)C1=C(C)N(c2cccc(C(F)(F)F)c2)C(=O)N(C)C1c1ccc(C#N)cc1C1=CCOCC1 (stereo not drawn) [Example 5.7]
< 1	CC(=O)C1=C(C)N(c2cccc(C(F)(F)F)c2)C(=O)N(C)C1c1ccc(C#N)cc1-c1cnco1 (stereo not drawn) [Example 5.8]
1.4	CC(=O)C1=C(C)N(c2cccc(C(F)(F)F)c2)C(=O)N(C)C1c1ccc(C#N)cc1-c1cccnc1 (stereo not drawn) [Example 5.9]
1.3	CC(=O)C1=C(C)N(c2cccc(C(F)(F)F)c2)C(=O)N(C)C1c1ccc(C#N)cc1-c1ccncc1 (stereo not drawn) [Example 5.10]
< 1	CC(=O)C1=C(C)N(c2cccc(C(F)(F)F)c2)C(=O)N(C)C1c1ccc(C#N)cc1-c1ccc(=O)n(C)c1 (stereo not drawn) [Example 5.11]
3	CC(=O)C1=C(C)N(c2cccc(C(F)(F)F)c2)C(=O)N(C)C1c1ccc(C#N)cc1-c1ccc2c(cnn2C)c1 (stereo not drawn) [Example 5.12]
22.6	CC(=O)C1=C(C)N(c2cccc(C(F)(F)F)c2)C(=O)N(C)C1c1ccc(C#N)cc1-c1ccc2occc2c1 (stereo not drawn) [Example 5.13]
5.7	CC(=O)C1=C(C)N(c2cccc(C(F)(F)F)c2)C(=O)N(C)C1c1ccc(C#N)cc1-c1ccc2c(ccn2C)c1 (stereo not drawn) [Example 5.14]
< 1	CC(=O)C1=C(C)N(c2cccc(C(F)(F)F)c2)C(=O)N(C)C1c1ccc(C#N)cc1-c1cncc(F)c1 (stereo not drawn) [Example 5.15]

Continued, compound first:

Structure (SMILES)	IC50 [nM]
CCOC(=O)C1=C(C)N(c2cccc(C(F)(F)F)c2)C(=O)N(C)C1c1ccc(C#N)cc1C(=O)NCCCOC (stereo not drawn) [Example 3.25]	1.2
CCOC(=O)C1=C(C)N(c2cccc(C(F)(F)F)c2)C(=O)N(C)C1c1ccc(C#N)cc1C(=O)NCC(F)(F)F (stereo not drawn) [Example 3.26]	1.6
CCOC(=O)C1=C(C)N(c2cccc(C(F)(F)F)c2)C(=O)N(C)C1c1ccc(C#N)cc1C(=O)N1CCC(O)CC1 (stereo not drawn) [Example 3.27]	2.2
CCOC(=O)C1=C(C)N(c2cccc(C(F)(F)F)c2)C(=O)N(C)C1c1ccc(C#N)cc1C(=O)NC1CCC(O)C1 (stereo not drawn) [Example 3.28]	1.3
CCOC(=O)C1=C(C)N(c2cccc(C(F)(F)F)c2)C(=O)N(C)C1c1ccc(C#N)cc1C(=O)NC1CCOCC1 (stereo not drawn) [Example 3.29]	1.4
CCOC(=O)C1=C(C)N(c2cccc(C(F)(F)F)c2)C(=O)N(C)C1c1ccc(C#N)cc1C(=O)N(C)CCCOC (stereo not drawn) [Example 3.30]	1.1
CCOC(=O)C1=C(C)N(c2cccc(C(F)(F)F)c2)C(=O)N(C)C1c1ccc(C#N)cc1C(=O)NC1CCN(C)CC1 (stereo not drawn) [Example 3.31]	1
CCOC(=O)C1=C(C)N(c2cccc(C(F)(F)F)c2)C(=O)N(C)C1c1ccc(C#N)cc1C(=O)NCCS(C)(=O)=O (stereo not drawn) [Example 3.32]	1.1
CCOC(=O)C1=C(C)N(c2cccc(C(F)(F)F)c2)C(=O)N(C)C1c1ccc(C#N)cc1C(=O)N(C)Cc1cnn(C)c1 (stereo not drawn) [Example 3.33]	< 1
CCOC(=O)C1=C(C)N(c2cccc(C(F)(F)F)c2)C(=O)N(C)C1c1ccc(C#N)cc1C(=O)NC1CCS(=O)(=O)C1 (stereo not drawn) [Example 3.34]	1
CCOC(=O)C1=C(C)N(c2cccc(C(F)(F)F)c2)C(=O)N(C)C1c1ccc(C#N)cc1C(=O)NCCN(C)C (stereo not drawn) [Example 3.35]	< 1
CCOC(=O)C1=C(C)N(c2cccc(C(F)(F)F)c2)C(=O)N(C)C1c1ccc(C#N)cc1C(=O)N(C)CCN(C)C (stereo not drawn) [Example 3.36]	< 1
CCOC(=O)C1=C(C)N(c2cccc(C(F)(F)F)c2)C(=O)N(C)C1c1ccc(C#N)cc1C(=O)N1CC[C@@H](N(C)C)C1 (stereo partly drawn) [Example 3.37]	2.8
CCOC(=O)C1=C(C)N(c2cccc(C(F)(F)F)c2)C(=O)N(C)C1c1ccc(C#N)cc1C(=O)N1CC[C@H](N(C)C)C1 (stereo partly drawn) [Example 3.38]	1
CCOC(=O)C1=C(C)N(c2cccc(C(F)(F)F)c2)C(=O)N(C)C1c1ccc(C#N)cc1C(=O)N1CCn2cnnc2C1 (stereo not drawn) [Example 3.41]	< 1
CCOC(=O)C1=C(C)N(c2cccc(C(F)(F)F)c2)C(=O)N(C)C1c1ccc(C#N)cc1C(=O)N1CCN(C2CC2)CC1 (stereo not drawn) [Example 3.42]	2.9
CCOC(=O)C1=C(C)N(c2cccc(C(F)(F)F)c2)C(=O)N(C)C1c1ccc(C#N)cc1C(=O)N1CCN2CCCC2C1 (stereo not drawn) [Example 3.43]	2.8
CCOC(=O)C1=C(C)N(c2cccc(C(F)(F)F)c2)C(=O)N(C)C1c1ccc(C#N)cc1C(=O)NC1CCN(C(C)C)C1 (stereo not drawn) [Example 3.44]	1.1
CCOC(=O)C1=C(C)N(c2cccc(C(F)(F)F)c2)C(=O)N(C)C1c1ccc(C#N)cc1C(=O)N1CCN(C(C)C)CC1 (stereo not drawn) [Example 3.45]	1.8
CCOC(=O)C1=C(C)N(c2cccc(C(F)(F)F)c2)C(=O)N(C)C1c1ccc(C#N)cc1C(=O)N1CCN2CCOCC2C1 (stereo not drawn) [Example 3.46]	3.8

Structure (SMILES)	IC50 [nM]
CCOC(=O)C1=C(C)N(c2cccc(C(F)(F)F)c2)C(=O)N(C)C1c1ccc(C#N)cc1C(=O)N1CCNCC1 (stereo not drawn) [Example 4, 4-[4-Cyano-2-(piperazine-1-carbonyl)-phenyl]-3,6-dimethyl-2-oxo-1-(3-trifluoromethyl-phenyl)-1,2,3,4-tetrahydro-pyrimidine-5-carboxylic acid ethyl ester]	1.4
CCOC(=O)C1=C(C)N(c2cccc(C(F)(F)F)c2)C(=O)N(C)C1c1ccc(C#N)cc1C(=O)N1C[C@H]2C[C@@H]1CN2 (stereo partly drawn) [Example 4.1]	2.4
CCOC(=O)C1=C(C)N(c2cccc(C(F)(F)F)c2)C(=O)N(C)C1c1ccc(C#N)cc1C(=O)NC1CCNCC1 (stereo not drawn) [Example 4.2]	1.7
CCOC(=O)C1=C(C)N(c2cccc(C(F)(F)F)c2)C(=O)N(C)C1c1ccc(C#N)cc1C(=O)N1CCC(N)CC1 (stereo not drawn) [Example 4.3]	4.8
CCOC(=O)C1=C(C)N(c2cccc(C(F)(F)F)c2)C(=O)N(C)C1c1ccc(C#N)cc1C(=O)N1CC2COCC(C1)N2 (stereo not drawn) [Example 4.4]	11.4
CCOC(=O)C1=C(C)N(c2cccc(C(F)(F)F)c2)C(=O)N(C)C1c1ccc(C#N)cc1C(=O)NCCN (stereo not drawn) [Example 4.5]	< 1
CCOC(=O)C1=C(C)N(c2cccc(C(F)(F)F)c2)C(=O)N(C)C1c1ccc(C#N)cc1C(=O)N[C@H]1C[C@H]1N (stereo partly drawn) [Example 4.6]	< 1
CCOC(=O)C1=C(C)N(c2cccc(C(F)(F)F)c2)C(=O)N(C)C1c1ccc(C#N)cc1C(=O)N[C@@H]1C[C@H]1N (stereo partly drawn) [Example 4.7]	< 1
CCOC(=O)C1=C(C)N(c2cccc(C(F)(F)F)c2)C(=O)N(C)C1c1ccc(C#N)cc1C(=O)N(C)CCN (stereo not drawn) [Example 4.8]	< 1
CCOC(=O)C1=C(C)N(c2cccc(C(F)(F)F)c2)C(=O)N(C)C1c1ccc(C#N)cc1C(=O)NCCNC (stereo not drawn) [Example 4.9]	< 1
CCOC(=O)C1=C(C)N(c2cccc(C(F)(F)F)c2)C(=O)N(C)C1c1ccc(C#N)cc1C(=O)N[C@H]1CCNC1 (stereo partly drawn) [Example 4.10]	1.2
CCOC(=O)C1=C(C)N(c2cccc(C(F)(F)F)c2)C(=O)N(C)C1c1ccc(C#N)cc1C(=O)N[C@@H]1CCNC1 (stereo partly drawn) [Example 4.11]	1.1
CCOC(=O)C1=C(C)N(c2cccc(C(F)(F)F)c2)C(=O)N(C)C1c1ccc(C#N)cc1C(=O)N1CC[C@@H](N)C1 (stereo partly drawn) [Example 4.12]	< 1
CCOC(=O)C1=C(C)N(c2cccc(C(F)(F)F)c2)C(=O)N(C)C1c1ccc(C#N)cc1C(=O)N1CC[C@H](N)C1 (stereo partly drawn) [Example 4.13]	< 1
CCOC(=O)C1=C(C)N(c2cccc(C(F)(F)F)c2)C(=O)N(C)C1c1ccc(C#N)cc1C(=O)N1CC[C@H](NC)C1 (stereo partly drawn) [Example 4.16]	< 1
CCOC(=O)C1=C(C)N(c2cccc(C(F)(F)F)c2)C(=O)N(C)C1c1ccc(C#N)cc1C(=O)N1CCNC(C)C1 (stereo not drawn) [Example 4.17]	2
CCOC(=O)C1=C(C)N(c2cccc(C(F)(F)F)c2)C(=O)N(C)C1c1ccc(C#N)cc1C(=O)NC1CCN(C)C1 (stereo not drawn) [Example 4.18]	1.3
CC(=O)C1=C(C)N(c2cccc(C(F)(F)F)c2)C(=O)N(C)C1c1ccc(C#N)cc1-c1ccoc1 (stereo not drawn) [Example 5, 4-[5-Acetyl-3,6-dimethyl-2-oxo-1-(3-trifluoromethyl-phenyl)-1,2,3,4-tetrahydro-pyrimidin-4-yl]-3-furan-3-yl-benzonitrile]	2.6
CC(=O)C1=C(C)N(c2cccc(C(F)(F)F)c2)C(=O)N(C)C1c1ccc(C#N)cc1-c1nnco1 (stereo not drawn) [Example 6, 4-[5-Acetyl-3,6-dimethyl-2-oxo-1-(3-trifluoromethyl-phenyl)-1,2,3,4-tetrahydro-pyrimidin-4-yl]-3-[1,3,4]oxadiazol-2-yl-benzonitrile]	< 1
